From US8288385B2, “6-(3-aza-bicyclo[3.1.0]hex-3-yl)-2-phenyl-pyrimidines” (Actelion Pharmaceuticals Ltd., priority 2009, dated 2012)

Target: T1, human P2Y12 receptor (Homo sapiens, UniProt Q9H244)
T1 construct: expressed in transfected cells; host or cells: Chinese Hamster Ovary (CHO) cells
Experiment: P2Y12 receptor binding assay
Details: CHO cells with recombinant expression of the human P2Y12 receptor; tritium-labeled 2-methyl-S-ADP; RT, 2 hours
Description: P2Y12 Receptor Binding Assay
Chinese Hamster Ovary (CHO) cells with recombinant expression of the human P2Y12 receptor were cultured in 24 well cell-culture plates. Cells were washed three times with binding buffer (50 mM Tris pH 7.4, 100 mM NaCl, 1 mM EDTA, 0.5% BSA). The cells were then incubated with 0.5 ml per well binding buffer containing tritium-labeled 2-methyl-thio-adenosine 5′-diphosphate (2-methyl-S-ADP) (between 100,000 and 300,000 dpm per well) and various concentrations of test compounds. After incubation at RT for 2 hours, cells were washed three times with binding buffer. Then, cells were solubilized by addition of 0.5 ml solubilization buffer (SDS, NaOH, EDTA). The content of each well was then transferred into beta-counter vials and 2.0 ml of Ultima Gold Scintillation liquid was added.

T1 sequence (Q9H244 whole entry): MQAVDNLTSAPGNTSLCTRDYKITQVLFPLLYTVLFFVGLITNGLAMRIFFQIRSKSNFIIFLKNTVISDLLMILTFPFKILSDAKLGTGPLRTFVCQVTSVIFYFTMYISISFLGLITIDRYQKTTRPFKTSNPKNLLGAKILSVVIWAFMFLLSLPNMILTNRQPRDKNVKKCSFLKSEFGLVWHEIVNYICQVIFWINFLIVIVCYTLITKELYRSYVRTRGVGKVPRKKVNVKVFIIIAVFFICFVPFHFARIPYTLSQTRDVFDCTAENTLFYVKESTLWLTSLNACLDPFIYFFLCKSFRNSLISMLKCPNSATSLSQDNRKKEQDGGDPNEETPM

Row | Structure (SMILES) | IC50 [nM]
1 | CCCCOC(=O)N1CCN(C(=O)[C@@H](NC(=O)c2cc(N3C[C@@H]4[C@H](CC(=O)O)[C@@H]4C3)nc(-c3ccccc3)n2)C(C)C)CC1 [Example 25, 4-((S)-2-{[6-((1α,5α,6β)-6-Carboxymethyl-3-aza-bicyclo[3.1.0]hex-3-yl)-2-phenyl-pyrimidine-4-carbonyl]-amino}-3-methyl-butyryl)-piperazine-1-carboxylic acid butyl ester] | 13
2 | CCCCOC(=O)N1CCN(C(=O)[C@@H](NC(=O)c2cc(N3C[C@@H]4[C@@H](CC(=O)O)[C@@H]4C3)nc(-c3ccccc3)n2)C(C)C)CC1 [Example 24, 4-((S)-2-{[6-((1α,5α,6α)-6-Carboxymethyl-3-aza-bicyclo[3.1.0]hex-3-yl)-2-phenyl-pyrimidine-4-carbonyl]-amino}-3-methyl-butyryl)-piperazine-1-carboxylic acid butyl ester] | 13
3 | CCCCOC(=O)N1CCN(C(=O)[C@H](CC2CC2)NC(=O)c2cc(N3C[C@@H]4[C@H](C3)[C@@H]4C(=O)O)nc(-c3ccccc3)n2)CC1 [Example 40, (1α,5α,6β)-3-{6-[(S)-2-(4-Butoxycarbonyl-piperazin-1-yl)-1-cyclopropylmethyl-2-oxo-ethylcarbamoyl]-2-phenyl-pyrimidin-4-yl}-3-aza-bicyclo[3.1.0]hexane-6-carboxylic acid] | 143
4 | CCCCOC(=O)N1CCN(C(=O)[C@H](CP(=O)(N[C@@H](C)C(=O)OCC)N[C@@H](C)C(=O)OCC)NC(=O)c2cc(N3C[C@@H]4[C@H](C3)[C@H]4C(=O)OCC)nc(-c3ccccc3)n2)CC1 [Example 53, N,N′-Bis-((S)-1-Ethoxycarbonylethyl)-(R)-2-[(4-[(1α,5α,6α)-6-ethoxycarbonyl-3-aza-bicyclo[3.1.0]hex-3-yl]-2-phenyl-pyrimidin-6-carbonyl)-amino]-3-oxo-3-(4-butoxy-carbonyl-piperazin-1-yl)-propyl-phosphonic acid diamide] | 110
5 | CCCCOC(=O)N1CCN(C(=O)[C@H](CCC(=O)O)NC(=O)c2cc(N3C[C@@H]4[C@H](C3)[C@H]4C(=O)OCC)nc(-c3ccccc3)n2)CC1 [Example 3, (1α,5α,6α)-3-{6-[(S)-1-(4-Butoxycarbonyl-piperazine-1-carbonyl)-3-carboxy-propylcarbamoyl]-2-phenyl-pyrimidin-4-yl}-3-aza-bicyclo[3.1.0]hexane-6-carboxylic acid ethyl ester] | 8.7
6 | CCCCOC(=O)N1CCN(C(=O)CNC(=O)c2cc(N3C[C@@H]4[C@H](C3)[C@@H]4C(=O)O)nc(-c3ccccc3)n2)CC1 [Example 33, (1α,5α,6β)-3-{6-[2-(4-Butoxycarbonyl-piperazin-1-yl)-2-oxo-ethylcarbamoyl]-2-phenyl-pyrimidin-4-yl}-3-aza-bicyclo[3.1.0]hexane-6-carboxylic acid] | 68
7 | CCCCOC(=O)N1CCN(C(=O)[C@H](CP(=O)(OCC)OCC)NC(=O)c2cc(N3C[C@@H]4[C@H](C3)[C@H]4C(=O)OCC)nc(-c3ccccc3)n2)CC1 [Example 50, (1α,5α,6α)-3-{6-[(R)-2-(4-Butoxycarbonyl-piperazin-1-yl)-1-(diethoxy-phosphorylmethyl)-2-oxo-ethylcarbamoyl]-2-phenyl-pyrimidin-4-yl}-3-aza-bicyclo[3.1.0]hexane-6-carboxylic acid ethyl ester] | 383
8 | CCCCOC(=O)N1CCN(C(=O)[C@H](CCC(=O)O)NC(=O)c2cc(N3C[C@@H]4[C@H](C3)[C@H]4C(=O)O)nc(-c3ccccc3)n2)CC1 [Example 1, (1α,5α,6α)-3-{6-[(S)-1-(4-Butoxycarbonyl-piperazine-1-carbonyl)-3-carboxy-propylcarbamoyl]-2-phenyl-pyrimidin-4-yl}-3-aza-bicyclo[3.1.0]hexane-6-carboxylic acid] | 10
9 | CCCCOC(=O)N1CCN(C(=O)[C@H](C)NC(=O)c2cc(N3C[C@@H]4[C@H](C3)[C@@H]4C(=O)O)nc(-c3ccccc3)n2)CC1 [Example 35, (1α,5α,6β)-3-{6-[(S)-2-(4-Butoxycarbonyl-piperazin-1-yl)-1-methyl-2-oxo-ethylcarbamoyl]-2-phenyl-pyrimidin-4-yl}-3-aza-bicyclo[3.1.0]hexane-6-carboxylic acid] | 51
10 | CCCCOC(=O)N1CCN(C(=O)[C@@H](NC(=O)c2cc(N3C[C@@H]4[C@H](C3)[C@@H]4C(=O)O)nc(-c3ccc(F)cc3)n2)C(C)C)CC1 [Example 28, (1α,5α,6β)-3-[6-[(S)-1-(4-Butoxycarbonyl-piperazine-1-carbonyl)-2-methyl-propylcarbamoyl]-2-(4-fluoro-phenyl)-pyrimidin-4-yl]-3-aza-bicyclo[3.1.0]hexane-6-carboxylic acid] | 7
11 | CCCCOC(=O)N1CCN(C(=O)[C@H](CP(=O)(OCOC(C)=O)OCOC(C)=O)NC(=O)c2cc(N3C[C@@H]4[C@H](C3)[C@H]4C(=O)OCC)nc(-c3ccccc3)n2)CC1 [Example 52, (1α,5α,6α)-3-{6-[(R)-1-(Bis-acetoxymethoxy-phosphorylmethyl)-2-(4-butoxycarbonyl-piperazin-1-yl)-2-oxo-ethylcarbamoyl]-2-phenyl-pyrimidin-4-yl}-3-aza-bicyclo[3.1.0]hexane-6-carboxylic acid ethyl ester] | 4
12 | CCCCOC(=O)N1CCN(C(=O)[C@@H](NC(=O)c2cc(N3C[C@@H]4[C@H](C3)[C@@H]4C(=O)O)nc(-c3ccccc3)n2)C(C)C)CC1 [Example 11, (1α,5α,6β)-3-{6-[(S)-1-(4-Butoxycarbonyl-piperazine-1-carbonyl)-2-methyl-propylcarbamoyl]-2-phenyl-pyrimidin-4-yl}-3-aza-bicyclo[3.1.0]hexane-6-carboxylic acid] | 14
13 | CCCCOC(=O)N1CCN(C(=O)[C@H](CCC(=O)O)NC(=O)c2cc(N3C[C@@H]4[C@H](C3)[C@@H]4C(=O)O)nc(-c3ccccc3)n2)CC1 [Example 2, (1α,5α,6β)-3-{6-[(S)-1-(4-Butoxycarbonyl-piperazine-1-carbonyl)-3-carboxy-propylcarbamoyl]-2-phenyl-pyrimidin-4-yl}-3-aza-bicyclo[3.1.0]hexane-6-carboxylic acid] | 3.7
14 | CCCCOC(=O)N1CCN(C(=O)[C@H](CP(=O)(OCOC(=O)OCC)OCOC(=O)OCC)NC(=O)c2cc(N3C[C@@H]4[C@H](C3)[C@H]4C(=O)OCC)nc(-c3ccccc3)n2)CC1 [Example 54, (1α,5α,6α)-3-{6-[(R)-1-(Bis-ethoxycarbonyloxymethoxy-phosphorylmethyl)-2-(4-butoxycarbonyl-piperazin-1-yl)-2-oxo-ethylcarbamoyl]-2-phenyl-pyrimidin-4-yl}-3-aza-bicyclo[3.1.0]hexane-6-carboxylic acid ethyl ester] | 15
15 | CCCCOC(=O)N1CCN(C(=O)[C@@H](NC(=O)c2cc(N3C[C@@H]4[C@H](C3)[C@@H]4C(=O)O)nc(-c3ccccc3)n2)C(C)(C)C)CC1 [Example 43, (1α,5α,6β)-3-{6-[(S)-1-(4-Butoxycarbonyl-piperazine-1-carbonyl)-2,2-dimethyl-propylcarbamoyl]-2-phenyl-pyrimidin-4-yl}-3-aza-bicyclo[3.1.0]hexane-6-carboxylic acid] | 330
16 | CCCCOC(=O)N1CCN(C(=O)[C@@H](NC(=O)c2cc(N3C[C@@H]4[C@H](N)[C@@H]4C3)nc(-c3ccccc3)n2)C(C)C)CC1 [Example 23, 4-((S)-2-{[6-((1α,5α,6β)-6-Amino-3-aza-bicyclo[3.1.0]hex-3-yl)-2-phenyl-pyrimidine-4-carbonyl]-amino}-3-methyl-butyryl)-piperazine-1-carboxylic acid butyl ester] | 266
17 | CCCCCCOC(=O)N1CCN(C(=O)[C@@H](NC(=O)c2cc(N3C[C@@H]4[C@H](C3)[C@@H]4C(=O)O)nc(-c3ccccc3)n2)C(C)C)CC1 [Example 16, (1α,5α,6β)-3-{6-[(S)-1-(4-Hexyloxycarbonyl-piperazine-1-carbonyl)-2-methyl-propylcarbamoyl]-2-phenyl-pyrimidin-4-yl}-3-aza-bicyclo[3.1.0]hexane-6-carboxylic acid] | 34
18 | CCCCOC(=O)N1CCN(C(=O)[C@@H](NC(=O)c2cc(N3C[C@@H]4[C@H](C3)[C@@H]4c3nnn[nH]3)nc(-c3ccccc3)n2)C(C)C)CC1 [Example 22] | 38
19 | CCCCOC(=O)N1CCN(C(=O)[C@H](Cc2ccccc2)NC(=O)c2cc(N3CC4C(C3)C4C(=O)O)nc(-c3ccccc3)n2)CC1 (stereo partly drawn) [Example 46, (1α,5α,6α)-3-{6-[(S)-1-Benzyl-2-(4-butoxycarbonyl-piperazin-1-yl)-2-oxo-ethylcarbamoyl]-2-phenyl-pyrimidin-4-yl}-3-aza-bicyclo[3.1.0]hexane-6-carboxylic acid] | 961
20 | CCCCOC(=O)N1CCN(C(=O)[C@H](CCC(=O)O)NC(=O)c2cc(N3C[C@@H]4[C@@H](N)[C@@H]4C3)nc(-c3ccccc3)n2)CC1 [Example 7] | 7.5
21 | CCCCOC(=O)N1CCN(C(=O)[C@H](CCC(=O)O)NC(=O)c2cc(N3C[C@@H]4[C@@H](CO)[C@@H]4C3)nc(-c3ccccc3)n2)CC1 [Example 9, 4-((S)-4-Carboxy-2-{[6-((1α,5α,6α)-6-hydroxymethyl-3-aza-bicyclo[3.1.0]hex-3-yl)-2-phenyl-pyrimidine-4-carbonyl]-amino}-butyryl)-piperazine-1-carboxylic acid butyl ester] | 8
22 | CCCCOC(=O)N1CCN(C(=O)[C@@H](NC(=O)c2cc(N3C[C@@H]4[C@H](C3)[C@@H]4C(=O)O)nc(-c3ccccc3F)n2)C(C)C)CC1 [Example 47, (1α,5α,6β)-3-[6-[(S)-1-(4-Butoxycarbonyl-piperazine-1-carbonyl)-2-methyl-propylcarbamoyl]-2-(2-fluoro-phenyl)-pyrimidin-4-yl]-3-aza-bicyclo[3.1.0]hexane-6-carboxylic acid] | 12
